Measured values taken from ChEMBL document CHEMBL4742389, “Cyclohexyl benzamide compounds” (2019).
pEC50: −log10 of the molar value.

Experiments:
[1] = biological target: T1, Probable G-protein coupled receptor 142 (Homo sapiens) (UniProt Q7Z601); test: Agonist activity at human GPR142 receptor expressed in HEK293 cells assessed as accumulation of inositol phosphate incubated for 1 hr followed by IP1-d2 addition by HTRF assay relative to control; type: functional, cell-based; conditions: filed as agonist
T1 sequence (whole entry): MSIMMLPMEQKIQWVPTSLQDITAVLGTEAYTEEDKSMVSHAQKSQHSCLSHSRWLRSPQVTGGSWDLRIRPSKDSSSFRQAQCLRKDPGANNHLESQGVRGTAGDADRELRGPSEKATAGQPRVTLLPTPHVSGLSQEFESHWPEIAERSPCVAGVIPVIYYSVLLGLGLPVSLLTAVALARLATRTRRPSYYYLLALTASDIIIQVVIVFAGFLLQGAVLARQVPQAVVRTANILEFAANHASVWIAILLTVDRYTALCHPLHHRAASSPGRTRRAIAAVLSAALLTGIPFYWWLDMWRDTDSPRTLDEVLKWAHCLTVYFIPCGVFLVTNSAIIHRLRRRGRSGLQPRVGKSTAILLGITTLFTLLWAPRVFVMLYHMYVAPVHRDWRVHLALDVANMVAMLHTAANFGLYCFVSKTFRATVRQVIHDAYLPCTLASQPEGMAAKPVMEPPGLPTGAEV

[2] = biological target: T2, Probable G-protein coupled receptor 142 (Homo sapiens, UniProt Q7Z601); test: Agonist activity at human GPR142 receptor expressed in HEK293 cells assessed as accumulation of inositol phosphate incubated for 1 hr followed by IP1-d2 addition by HTRF assay; type: functional, cell-based
T2 sequence (Q7Z601 whole entry): T1 sequence (whole entry)

[3] = system: Mus musculus; test: Antidiabetic activity in po dosed lean C57BL/6J mouse assessed as reduction in glucose level administered 90 mins prior to glucose challenge measured for 60 mins by IPGTT; type: functional; conditions: 2.5 h, time 150 min

Efficacy [1] [%]	pEC50 [2]	SMILES	ED50 [3] [mg/kg]
120	> 6.92	Cc1nc[nH]c1-c1nnc([C@H]2CCC[C@@H](N(C)C(=O)c3cccc(C(F)(F)F)c3)C2)[nH]1	–
120	> 6.92	CN(C(=O)c1cccc(C(F)(F)F)c1)[C@@H]1CCC[C@H](c2nnc(-c3cnc4n3CCOC4)[nH]2)C1	–
120	> 6.92	Cc1ncn(C)c1-c1nnc([C@H]2CCC[C@@H](N(C)C(=O)c3cccc(C(F)(F)F)c3)C2)[nH]1	–
120	> 6.92	Cc1ncc(-c2nnc([C@H]3CCC[C@@H](N(C)C(=O)c4cccc(C(F)(F)F)c4)C3)[nH]2)n1C	–
120	> 6.92	Cc1ncn(CC(F)F)c1-c1nnc([C@H]2CCC[C@@H](N(C)C(=O)c3cccc(C(F)(F)F)c3)C2)[nH]1	–
120	> 6.92	Cc1ncc(-c2nnc([C@H]3CCC[C@@H](N(C)C(=O)c4cccc(C(F)(F)F)c4)C3)[nH]2)[nH]1	–

The next lines start with the molecule.

SMILES	Efficacy [1] [%]	pEC50 [2]	ED50 [3] [mg/kg]
Cc1ncn(C)c1-c1nnc([C@@H]2CCC[C@H](N(C)C(=O)c3cccc(Cl)c3)C2)[nH]1	120	–	–
Cc1nc[nH]c1-c1nnc([C@H]2CCC[C@@H](N(C)C(=O)c3cccc(Cl)c3)C2)[nH]1	120	> 6.92	–
Cc1ncc(-c2nnc([C@H]3CCC[C@@H](N(C)C(=O)c4cccc(Cl)c4)C3)[nH]2)n1C	120	> 6.92	–
COCCn1cnc(C)c1-c1nnc([C@H]2CCC[C@@H](N(C)C(=O)c3cccc(Cl)c3)C2)[nH]1	120	> 6.92	–
Cc1nc[nH]c1-c1nnc([C@H]2CCC[C@@H](N(C)C(=O)c3cccc(OC(F)(F)F)c3)C2)[nH]1	120	> 6.92	–
Cc1ncn(C)c1-c1nnc([C@H]2CCC[C@@H](N(C)C(=O)c3cccc(Cl)c3)C2)[nH]1	110	–	0.25
